From ChEMBL document CHEMBL1201862, “PubChem BioAssay data set” (2004)
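Growth conditions: 96-well plates. Treatment: test compound, 48 hours, 5 concentrations. Analysis: linear interpolation between bracketing concentrations; unreached endpoints set to highest concentration. The concentration for 50% growth inhibition is given as GI50.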 The source made the active and inactive calls. Rule as the data show it: active = GI50 up to about 1.1 µM and inactive = higher.

How the values were obtained:
Assay in all cases: NCI-60 cell line screen, 48 h
SNB-19 = tested on: SNB-19
KM12 = tested on: KM12
CCRF-CEM = tested on: CCRF-CEM
SNB-75 = tested on: SNB-75
Malme-3M = tested on: Malme-3M
786-0 = tested on: 786-0
UO-31 = tested on: UO-31
NCI-H522 = tested on: NCI-H522
HCT-15 = tested on: HCT-15
HL-60 = tested on: HL-60
SF-295 = tested on: SF-295
CAKI-1 = tested on: CAKI-1
NCI-H460 = tested on: NCI-H460
RPMI-8226 = tested on: RPMI-8226
OVCAR-8 = tested on: OVCAR-8
LOX IMVI = tested on: LOX IMVI
TK-10 = tested on: TK-10

For `O=C(CCc1cc(-c2ccco2)n(-c2ccc([N+](=O)[O-])cc2[N+](=O)[O-])n1)Nc1ccccc1`, the GI50 (SNB-19) was > 100 µM (inactive), the GI50 (KM12) was > 100 µM (inactive) and the GI50 (CCRF-CEM) was 61 µM (inactive). The GI50 (SNB-75) was > 100 µM (inactive), the GI50 (Malme-3M) was 32.8 µM (inactive) and the GI50 (786-0) was > 100 µM (inactive). For the same molecule, the GI50 (UO-31) was > 100 µM (inactive), the GI50 (NCI-H522) was > 100 µM (inactive) and the GI50 (HCT-15) was > 100 µM. For the same molecule, the GI50 (HL-60) was 49.3 µM (inactive), the GI50 (SF-295) was > 100 µM (inactive) and the GI50 (CAKI-1) was > 100 µM (inactive). The GI50 (NCI-H460) was > 100 µM (inactive), the GI50 (RPMI-8226) was > 100 µM (inactive) and the GI50 (OVCAR-8) was > 100 µM (inactive).

In the case of `O=C1/C(=C/c2ccc(Cl)cc2)CCC1CCN1CCOCC1` (configuration not stated), the GI50 (SNB-19) is reported as > 100 µM (inactive), the GI50 (KM12) is reported as 40.8 µM (inactive) and the GI50 (CCRF-CEM) is reported as 29 µM (inactive). The GI50 (SNB-75) was > 100 µM (inactive), the GI50 (LOX IMVI) was 39.8 µM (inactive) and the GI50 (Malme-3M) was > 100 µM (inactive). For the same molecule, the GI50 (786-0) was 72.3 µM (inactive), the GI50 (UO-31) was 68.7 µM (inactive) and the GI50 (HCT-15) was 36.3 µM. The GI50 (HL-60) was 23 µM (inactive), the GI50 (SF-295) was > 100 µM (inactive) and the GI50 (CAKI-1) was 76.2 µM (inactive). The GI50 (NCI-H460) was 38.9 µM (inactive), the GI50 (RPMI-8226) was 23.8 µM (inactive) and the GI50 (OVCAR-8) was > 100 µM (inactive). For the same molecule, the GI50 (TK-10) was > 100 µM (inactive).

In the case of `COc1ccc(CN(CCN(C)C)c2ccccn2)cc1.Cn1c(=O)c2[nH]c(Br)nc2n(C)c1=O`, the GI50 (SNB-19) is reported as > 100 µM (inactive), the GI50 (KM12) is reported as > 100 µM (inactive) and the GI50 (CCRF-CEM) is reported as > 100 µM (inactive). For the same molecule, the GI50 (SNB-75) was 23.3 µM (inactive), the GI50 (Malme-3M) was > 100 µM (inactive) and the GI50 (786-0) was > 100 µM (inactive). For the same molecule, the GI50 (UO-31) was > 100 µM (inactive), the GI50 (NCI-H522) was > 100 µM (inactive) and the GI50 (HCT-15) was 71.6 µM. For the same molecule, the GI50 (SF-295) was > 100 µM (inactive), the GI50 (CAKI-1) was > 100 µM (inactive) and the GI50 (OVCAR-8) was > 100 µM (inactive). For the same molecule, the GI50 (TK-10) was > 100 µM (inactive).

With `O=C1OC(c2ccccc2)=N/C1=C/NC(Cc1c[nH]cn1)C(=O)O` (configuration not stated) the GI50 (SNB-19) was > 100 µM (inactive), the GI50 (CCRF-CEM) was > 100 µM (inactive) and the GI50 (SNB-75) was > 100 µM (inactive). The GI50 (LOX IMVI) was > 100 µM (inactive), the GI50 (Malme-3M) was > 100 µM (inactive) and the GI50 (786-0) was > 100 µM (inactive). The GI50 (UO-31) was > 100 µM (inactive), the GI50 (NCI-H522) was > 100 µM (inactive) and the GI50 (HCT-15) was > 100 µM. The GI50 (HL-60) was > 100 µM (inactive), the GI50 (SF-295) was > 100 µM (inactive) and the GI50 (NCI-H460) was > 100 µM (inactive). For the same molecule, the GI50 (RPMI-8226) was > 100 µM (inactive), the GI50 (OVCAR-8) was > 100 µM (inactive) and the GI50 (TK-10) was > 100 µM (inactive).

`Cc1ccc(S(=O)(=O)N2CCN(C=S)CC2)cc1` was tested, and the GI50 (SNB-19) was > 100 µM (inactive), the GI50 (KM12) was > 100 µM (inactive) and the GI50 (CCRF-CEM) was > 100 µM (inactive). For the same molecule, the GI50 (SNB-75) was > 100 µM (inactive), the GI50 (LOX IMVI) was > 100 µM (inactive) and the GI50 (Malme-3M) was > 100 µM (inactive). The GI50 (786-0) was > 100 µM (inactive), the GI50 (UO-31) was > 100 µM (inactive) and the GI50 (NCI-H522) was > 100 µM (inactive). The GI50 (HCT-15) was > 100 µM, the GI50 (HL-60) was > 100 µM (inactive) and the GI50 (NCI-H460) was > 100 µM (inactive). For the same molecule, the GI50 (OVCAR-8) was > 100 µM (inactive) and the GI50 (TK-10) was > 100 µM (inactive).

`CC1=C(O)C(=O)C2C(=O)C1C(C)C2c1ccc(Cl)cc1` (configuration not stated) was tested, and the GI50 (SNB-19) was > 100 µM (inactive), the GI50 (KM12) was > 100 µM (inactive) and the GI50 (CCRF-CEM) was > 100 µM (inactive). For the same molecule, the GI50 (SNB-75) was 72.3 µM (inactive), the GI50 (LOX IMVI) was > 100 µM (inactive) and the GI50 (Malme-3M) was > 100 µM (inactive). The GI50 (786-0) was > 100 µM (inactive), the GI50 (UO-31) was > 100 µM (inactive) and the GI50 (NCI-H522) was > 100 µM (inactive). The GI50 (HCT-15) was > 100 µM, the GI50 (HL-60) was > 100 µM (inactive) and the GI50 (SF-295) was > 100 µM (inactive). The GI50 (CAKI-1) was > 100 µM (inactive), the GI50 (RPMI-8226) was > 100 µM (inactive) and the GI50 (OVCAR-8) was > 100 µM (inactive). For the same molecule, the GI50 (TK-10) was > 100 µM (inactive).

For `O=C(CO)CC(=O)C(=O)Nc1cccc(C(F)(F)F)c1`, the GI50 (SNB-19) was > 100 µM (inactive), the GI50 (KM12) was > 100 µM (inactive) and the GI50 (SNB-75) was > 100 µM (inactive). For the same molecule, the GI50 (LOX IMVI) was > 100 µM (inactive), the GI50 (Malme-3M) was > 100 µM (inactive) and the GI50 (786-0) was > 100 µM (inactive). For the same molecule, the GI50 (UO-31) was > 100 µM (inactive), the GI50 (NCI-H522) was > 100 µM (inactive) and the GI50 (HCT-15) was > 100 µM. The GI50 (HL-60) was > 100 µM (inactive), the GI50 (SF-295) was > 100 µM (inactive) and the GI50 (CAKI-1) was > 100 µM (inactive). The GI50 (NCI-H460) was > 100 µM (inactive), the GI50 (RPMI-8226) was > 100 µM (inactive) and the GI50 (OVCAR-8) was > 100 µM (inactive). For the same molecule, the GI50 (TK-10) was > 100 µM (inactive).

With `Cc1cc(=O)n(-c2cc3cccccc-3n2)[nH]1` the GI50 (SNB-19) was 43.6 µM (inactive), the GI50 (KM12) was 5.38 µM (inactive) and the GI50 (CCRF-CEM) was 4.13 µM (inactive). For the same molecule, the GI50 (SNB-75) was 3.76 µM (inactive), the GI50 (LOX IMVI) was 9.64 µM (inactive) and the GI50 (Malme-3M) was 3.76 µM (inactive). The GI50 (786-0) was 4.58 µM (inactive), the GI50 (UO-31) was 6.35 µM (inactive) and the GI50 (NCI-H522) was 2.68 µM (inactive). For the same molecule, the GI50 (HCT-15) was 5.07 µM, the GI50 (HL-60) was 3.48 µM (inactive) and the GI50 (SF-295) was 16.7 µM (inactive). For the same molecule, the GI50 (NCI-H460) was 3.4 µM (inactive), the GI50 (RPMI-8226) was 8 µM (inactive) and the GI50 (OVCAR-8) was 5.53 µM (inactive). For the same molecule, the GI50 (TK-10) was 7.31 µM (inactive).

`CC12N=NNC1C(=O)NC2=O` (configuration not stated) was tested, and the GI50 (SNB-19) was > 100 µM (inactive), the GI50 (KM12) was > 100 µM (inactive) and the GI50 (CCRF-CEM) was > 100 µM (inactive). The GI50 (SNB-75) was > 100 µM (inactive), the GI50 (LOX IMVI) was > 100 µM (inactive) and the GI50 (786-0) was > 100 µM (inactive). The GI50 (UO-31) was > 100 µM (inactive), the GI50 (NCI-H522) was > 100 µM (inactive) and the GI50 (HCT-15) was > 100 µM. For the same molecule, the GI50 (HL-60) was > 100 µM (inactive), the GI50 (SF-295) was > 100 µM (inactive) and the GI50 (CAKI-1) was > 100 µM (inactive). The GI50 (NCI-H460) was > 100 µM (inactive), the GI50 (RPMI-8226) was > 100 µM (inactive) and the GI50 (OVCAR-8) was > 100 µM (inactive). The GI50 (TK-10) was > 100 µM (inactive).
